The source of these data is ChEMBL document CHEMBL3046594, “Bioactive metabolites from an endophytic fungus of Aspergillus species isolated from seeds of Gloriosa superba Linn” (Med Chem Res, 2013).

Assay [1] deals with MCF7. Kind of assay: Cytotoxicity against Homo sapiens (human) MCF7 cells assessed as growth inhibition at 10 to 100 uM after 48 hr by SRB assay. The assay is classed as functional, cell-based. On the technique in general: In SRB staining, fixed cells bind dye roughly in proportion to their protein.
The subject of assay [2] is Bacillus subtilis. Kind of assay: Antibacterial activity against Bacillus subtilis MTCC 2451 assessed as growth inhibition at 2 mg/mL after 24 hr by disk diffusion method. Particulars: for zone of inhibition at 2000 µg/mL: MTCC 2451, 24 h, read-out: DIZ. Type of assay: functional. (In agar diffusion tests the substance spreads into inoculated agar from a disc or well.)

Assay [3] deals with Staphylococcus aureus. Kind of assay: Antibacterial activity against Staphylococcus aureus MTCC 96 assessed as growth inhibition at 2 mg/mL after 24 hr by disk diffusion method. As to conditions: for zone of inhibition at 2000 µg/mL: MTCC 96, 24 h, read-out: DIZ. The assay is classed as functional.
The subject of assay [4] is Saccharomyces cerevisiae. Kind of assay: Antifungal activity against Saccharomyces cerevisiae MTCC 172 assessed as growth inhibition at 2 mg/mL after 48 hr by disk diffusion method. As to conditions: for zone of inhibition at 2000 µg/mL: MTCC 172, 48 h, read-out: DIZ. Type of assay: functional.
In assay [5] the test system is Candida albicans. Nature of the assay: Antifungal activity against Candida albicans MTCC 3018 assessed as growth inhibition at 2 mg/mL after 48 hr by disk diffusion method. Type of assay: functional.
In assay [6] the test system is Escherichia coli. Kind of assay: Antibacterial activity against Escherichia coli MTCC 82 assessed as growth inhibition at 2 mg/mL after 24 hr by disk diffusion method. The assay is classed as functional. As to conditions: for zone of inhibition at 2000 µg/mL: MTCC 82, 24 h, read-out: DIZ.
Assay [7] concerns Pseudomonas aeruginosa. Nature of the assay: Antibacterial activity against Pseudomonas aeruginosa MTCC 2642 assessed as growth inhibition at 2 mg/mL after 24 hr by disk diffusion method. Type of assay: functional.
In assay [8] the test system is Goffeauzyma gastrica. Nature of the assay: Antifungal activity against Cryptococcus gastricus MTCC 1715 assessed as growth inhibition at 2 mg/mL after 48 hr by disk diffusion method. Type of assay: functional.
Assay [9] deals with Salmonella typhi. Nature of the assay: Antibacterial activity against Salmonella enterica subsp. enterica serovar Typhi MTCC 1251 assessed as growth inhibition at 2 mg/mL after 24 hr by disk diffusion method. Type of assay: functional, organism-based.
In assay [10] the test system is THP-1. Kind of assay: Cytotoxicity against Homo sapiens (human) THP1 cells assessed as growth inhibition at 10 to 100 uM after 48 hr by SRB assay. Type of assay: functional, cell-based.
The subject of assay [11] is A549. Kind of assay: Cytotoxicity against Homo sapiens (human) A549 cells assessed as growth inhibition at 20 uM after 48 hr by SRB assay. Type of assay: functional. Particulars: A549, 48 h, read-out: GI.
Assay [12] relates to THP-1. Kind of assay: Cytotoxicity against Homo sapiens (human) THP1 cells assessed as growth inhibition at 20 uM after 48 hr by SRB assay. As to conditions: THP-1, 48 h, read-out: GI. Type of assay: functional.
The subject of assay [13] is HEp-2. Nature of the assay: Cytotoxicity against Homo sapiens (human) Hep2 cells assessed as growth inhibition at 20 uM after 48 hr by SRB assay. The assay is classed as functional. Particulars: HEp-2, 48 h, read-out: GI.
The test system of assay [14] is CV-1. Kind of assay: Cytotoxicity against Chlorocebus aethiops (African green monkey) CV1 cells assessed as growth inhibition at 20 uM after 48 hr by SRB assay. Type of assay: functional. As to conditions: CV-1, 48 h, read-out: GI.
Assay [15] concerns Pseudomonas aeruginosa. Kind of assay: Antibacterial activity against Pseudomonas aeruginosa MTCC 2642 assessed as growth inhibition after 24 hr by broth dilution method. Type of assay: functional. (In general: In broth dilution the organism is exposed to a series of concentrations in liquid medium.)
For assay [16], the system named is Candida albicans. Nature of the assay: Antifungal activity against Candida albicans MTCC 3018 assessed as growth inhibition after 48 hr by broth dilution method. The assay is classed as functional.
In assay [17] the test system is Saccharomyces cerevisiae. Nature of the assay: Antifungal activity against Saccharomyces cerevisiae MTCC 172 assessed as growth inhibition after 48 hr by broth dilution method. Type of assay: functional.
Assay [18] deals with Salmonella typhi. Kind of assay: Antibacterial activity against Salmonella enterica subsp. enterica serovar Typhi MTCC 1251 assessed as growth inhibition after 24 hr by broth dilution method. The assay is classed as functional, organism-based.
For assay [19], the system named is Bacillus subtilis. Kind of assay: Antibacterial activity against Bacillus subtilis MTCC 2451 assessed as growth inhibition after 24 hr by broth dilution method. The assay is classed as functional. As to conditions: MTCC 2451, 24 h.
Assay [20] has as its system Staphylococcus aureus. Nature of the assay: Antibacterial activity against Staphylococcus aureus MTCC 96 assessed as growth inhibition after 24 hr by broth dilution method. As to conditions: MTCC 96, 24 h. Type of assay: functional.
Assay [21] has as its system Escherichia coli. Kind of assay: Antibacterial activity against Escherichia coli MTCC 82 assessed as growth inhibition after 24 hr by broth dilution method. Particulars: MTCC 82, 24 h. The assay is classed as functional.
In assay [22] the test system is Goffeauzyma gastrica. Kind of assay: Antifungal activity against Cryptococcus gastricus MTCC 1715 assessed as growth inhibition after 48 hr by broth dilution method. Type of assay: functional.
Assay [23] deals with OVCAR-5. Kind of assay: Cytotoxicity against Homo sapiens (human) OVCAR5 cells assessed as growth inhibition at 10 uM after 48 hr by SRB assay. Type of assay: functional. Particulars: OVCAR-5, 48 h, read-out: GI.
Assay [24] relates to CV-1. Kind of assay: Cytotoxicity against Chlorocebus aethiops (African green monkey) CV1 cells assessed as growth inhibition at 100 uM after 48 hr by SRB assay. Type of assay: functional. As to conditions: CV-1, 48 h, read-out: GI.
In assay [25] the test system is MCF7. Kind of assay: Cytotoxicity against Homo sapiens (human) MCF7 cells assessed as growth inhibition at 10 uM after 48 hr by SRB assay. The assay is classed as functional. As to conditions: MCF7, 48 h, read-out: GI.
Assay [26] concerns THP-1. Kind of assay: Cytotoxicity against Homo sapiens (human) THP1 cells assessed as growth inhibition at 50 uM after 48 hr by SRB assay. The assay is classed as functional. Particulars: THP-1, 48 h, read-out: GI.
The subject of assay [27] is OVCAR-5. Nature of the assay: Cytotoxicity against Homo sapiens (human) OVCAR5 cells assessed as growth inhibition at 100 uM after 48 hr by SRB assay. Type of assay: functional. As to conditions: OVCAR-5, 48 h, read-out: GI.
Assay [28] has as its system THP-1. Nature of the assay: Cytotoxicity against Homo sapiens (human) THP1 cells assessed as growth inhibition after 48 hr by SRB assay. The assay is classed as functional, cell-based. Particulars: THP-1, 48 h.
For assay [29], the system named is OVCAR-5. Kind of assay: Cytotoxicity against Homo sapiens (human) OVCAR5 cells assessed as growth inhibition at 50 uM after 48 hr by SRB assay. Type of assay: functional. Particulars: OVCAR-5, 48 h, read-out: GI.
Assay [30] has as its system CV-1. Kind of assay: Cytotoxicity against Chlorocebus aethiops (African green monkey) CV1 cells assessed as growth inhibition at 30 uM after 48 hr by SRB assay. The assay is classed as functional. As to conditions: CV-1, 48 h, read-out: GI.
For assay [31], the system named is MCF7. Nature of the assay: Cytotoxicity against Homo sapiens (human) MCF7 cells assessed as growth inhibition at 100 uM after 48 hr by SRB assay. Type of assay: functional. As to conditions: MCF7, 48 h, read-out: GI.
In assay [32] the test system is CV-1. Kind of assay: Cytotoxicity against Chlorocebus aethiops (African green monkey) CV1 cells assessed as growth inhibition at 50 uM after 48 hr by SRB assay. As to conditions: CV-1, 48 h, read-out: GI. The assay is classed as functional.
Assay [33] relates to MCF7. Kind of assay: Cytotoxicity against Homo sapiens (human) MCF7 cells assessed as growth inhibition after 48 hr by SRB assay. The assay is classed as functional, cell-based. Particulars: MCF7, 48 h.
Assay [34] deals with MCF7. Nature of the assay: Cytotoxicity against Homo sapiens (human) MCF7 cells assessed as growth inhibition at 50 uM after 48 hr by SRB assay. Type of assay: functional. Particulars: MCF7, 48 h, read-out: GI.
Assay [35] concerns THP-1. Kind of assay: Cytotoxicity against Homo sapiens (human) THP1 cells assessed as growth inhibition at 10 uM after 48 hr by SRB assay. Type of assay: functional. As to conditions: THP-1, 48 h, read-out: GI.
For assay [36], the system named is A549. Kind of assay: Cytotoxicity against Homo sapiens (human) A549 cells assessed as growth inhibition at 100 uM after 48 hr by SRB assay. Type of assay: functional. Particulars: A549, 48 h, read-out: GI.
For assay [37], the system named is OVCAR-5. Kind of assay: Cytotoxicity against Homo sapiens (human) OVCAR5 cells assessed as growth inhibition at 30 uM after 48 hr by SRB assay. The assay is classed as functional. Particulars: OVCAR-5, 48 h, read-out: GI.
The test system of assay [38] is THP-1. Nature of the assay: Cytotoxicity against Homo sapiens (human) THP1 cells assessed as growth inhibition at 30 uM after 48 hr by SRB assay. Type of assay: functional. Particulars: THP-1, 48 h, read-out: GI.
The test system of assay [39] is MCF7. Nature of the assay: Cytotoxicity against Homo sapiens (human) MCF7 cells assessed as growth inhibition at 30 uM after 48 hr by SRB assay. The assay is classed as functional. Particulars: MCF7, 48 h, read-out: GI.
For assay [40], the system named is THP-1. Nature of the assay: Cytotoxicity against Homo sapiens (human) THP1 cells assessed as growth inhibition at 100 uM after 48 hr by SRB assay. The assay is classed as functional. Particulars: THP-1, 48 h, read-out: GI.

Values after ≈ are worked out from the molar mass of the structure shown. Active and inactive are the calls of the source. No cut-off for these calls is given here.

Consider `COC(=O)c1ccc(O)cc1C(=O)OC`, for which the “growth inhibition (GI)” value in assay [1] and in assay [10] was “Active” each time. For the same molecule, the “growth inhibition (GI)” value in [2], in assay [3], in assay [4], in assay [5], in assay [6] and in assay [7] was “inactive” throughout. The “growth inhibition (GI)” value in assay [8] and in assay [9] was “inactive” each time.
Turning to `O=c1[nH]cc(F)c(=O)[nH]1` [FLUOROURACIL], the inhibition of growth at 20 µM worked out at 79% in [11], 79% in [12], 87% in [13] and 43% in assay [14].
As for `O=Cc1ccc(CO)o1` [AES-103], the MIC entry in [15], in [16], in assay [17], in assay [18] and in assay [22] was “inactive” in each case. The zone of inhibition at 2000 µg/mL in [2] was 11.5 mm; in assay [3], 13.1 mm; in assay [4], 8.1 mm; in assay [6], 9 mm. Also, the “growth inhibition (GI)” value in assay [5], in [7], in [8] and in [9] was “inactive” in each case. Further, the MIC in [19] was 100 µg/mL (≈ 793 µM); in [20] it was 200 µg/mL (≈ 1590 µM); in assay [21] it was 400 µg/mL (≈ 3170 µM).
Regarding `CC(=O)NC12C=CC(=O)C=CC1c1c(cc(O)c(O)c1O)CC2C` (centres undefined), the inhibition of growth at 10 µM came out at 9% in [23], 26% in [25] and 48% in assay [35]. Also, the MIC is over 100 µg/mL in assay [15] (MTCC 2642, 24 h); 12.5 µg/mL (≈ 38 µM) in assay [16] (MTCC 3018, 48 h); 25 µg/mL (≈ 75.9 µM) in [17] (MTCC 172, 48 h); 50 µg/mL (≈ 152 µM) in assay [19]; 25 µg/mL (≈ 75.9 µM) in assay [20]; 100 µg/mL (≈ 304 µM) in assay [21]. In assay [22] (MTCC 1715, 48 h), the minimum inhibitory concentration (MIC) turned out to be 50 µg/mL (≈ 152 µM). Further, the inhibition of growth at 100 µM in assay [24] stood at 35%; in assay [27], 43%; in [31], 70%; in assay [36], 23%; in assay [40], 80%. For the same molecule, the inhibition of growth at 50 µM in assay [26] was found to be 67%; in [29], 33%; in assay [32], 19%; in assay [34], 52%. Also, the zone of inhibition at 2000 µg/mL was 17.5 mm in assay [2]; 15.7 mm in assay [3]; 16.9 mm in assay [4]; 18.9 mm in [5] (MTCC 3018, 48 h, read-out: DIZ); 13.3 mm in assay [6]; 11.9 mm in [7] (MTCC 2642, 24 h, read-out: DIZ). For the same molecule, in assay [8] (MTCC 1715, 48 h, read-out: DIZ), the zone of inhibition at 2000 µg/mL was 15.3 mm. Further, the IC50 in assay [28] stood at 30 µg/mL (≈ 91.1 µM); in assay [33], 50 µg/mL (≈ 152 µM). The inhibition of growth at 30 µM in [30] is 13%; in [37], 17%; in assay [38] it was 55%; in assay [39], 33%. In [18], the MIC result was “inactive”. Besides, in assay [9], the “growth inhibition (GI)” value was “inactive”.

By MIC is commonly meant the lowest concentration that inhibits growth of the organism. A word on the IC50: it is the point on the concentration scale where inhibition reaches its midpoint.
